Data taken from PMC10333884, “Large‐scale phosphomimetic screening identifies phospho‐modulated motif‐based protein interactions” (Molecular Systems Biology, 2023).
Residues, ends and D or L forms follow the SMILES beside them.

Tests used:
TSG101 UEV [1] = target: T1, TSG101 UEV (Homo sapiens, UniProt Q99816); assay: FP displacement assay, TSG101 UEV; format: binding; settings: for IC50: read-out: IC50 values of displacement curves, with SEM; for Kd: read-out: KD values ± SEM
T1 construct: TSG101_UEV__Q99816_1_145; made in house; host or cells: Escherichia coli BL21-Gold(DE3)
T1 sequence (Q99816 1-145): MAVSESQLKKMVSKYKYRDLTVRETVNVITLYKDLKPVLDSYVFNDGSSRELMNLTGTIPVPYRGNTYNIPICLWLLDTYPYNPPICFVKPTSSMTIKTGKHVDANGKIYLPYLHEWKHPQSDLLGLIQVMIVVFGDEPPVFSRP
Description: (§1) FP experiments were performed as described previously (Kliche et al, [2021]). Shortly, in order to monitor the binding event, FITC‐labelled peptides were used (excitation 495 nm, emission: 535 nm) and the FP signal was recorded in mP on a SpectraMax iD5 Multi‐Mode Microplate Reader (Molecular Devices) by measuring the emitted light in two angels. The measurements were performed at room temperature and prepared in nonbinding black half area 96‐well microplates (Corning®; 50 μl/well). For measuring direct binding, that is saturation curves, a 1:1 dilution series of protein domain (25 μl/well) was generated in 50 mM sodium phosphate buffer pH 7.4 and the measurement performed with 5 nM FITC‐labelled peptide (25 μl/well). The buffer‐corrected values were subsequently plotted with PRISM and fitted to the quadratic equation (Gianni et al, [2005]).
(§2) The 1:1 dilution series in this experiment was performed with the unlabelled peptide in 50 mM sodium phosphate buffer pH 7.4, so that each well‐contained unlabelled peptide (25 μl) at a certain concentration and pre‐formed complex (25 μl). The KD values of this indirectly monitored binding event were calculated as described previously (Nikolovska‐Coleska et al, [2004]). All measurements were at least in technical triplicates as well as biological duplicates when indicated. An amplitude shift between repeat measurements in the displacement experiments was occasionally observed due to variations in the protein preparations. If that was the case, the “active” protein concentration was back‐calculated according to the quadratic equation from the saturation curves performed in parallel. By comparing the active protein concentrations in the complex between different protein preparations, the amplitude was normalised.

TSG101 UEV [2] = target: T1, TSG101 UEV; assay: Phosphomimetic ProP-PD selection, TSG101 UEV; settings: phosphomimetic enrichment score of the wild-type/phosphomimetic (E) pair at the phosphosite, PM_HD2 phage selection; positive = phosphomimetic enhances binding; P-value in brackets not taken
Description: (§3) Selections using the PM_HD2 phage library were performed as described previously with minor modification to the original protocol. The corresponding tag protein (either GST or MBP) was first used during negative selections. Selections were run for 4 days. • Bait and tag proteins (10–15 μg in 100 μl PBS) were immobilised in 96‐well MaxiSorb plate (NUNC) o.n. at 4°C. • Escherichia coli OmniMax bacteria were grown in 2YT medium supplemented with tetracycline (100 μg/ml) at 37°C and 200 rpm. • Plates with immobilised bait/tag proteins were blocked with 0.5% BSA in PBS for 1 h at 4°C. • Phage library (10 μl/well) was prepared by diluting 10× with PBS and adding one‐fourth of the volume of PEG/NaCl. For phage precipitation, prepared library was incubated for 10 min on ice followed by centrifugation for 10 min at 10,000 × g at 4°C. […]
(§4) Based on the results from phage pool ELISAs, samples from selection Day 3 and 4 were selected for NGS, as described previously (Benz et al, [2022]). • Peptide coding regions were amplified and dual‐barcoded by PCR. […] From the columns, samples were eluted with 30 μl TE (10 mM Tris–HCl, 1 mM EDTA. pH 7.5) buffer and quantified with Quant‐iT PicoGreen dsDNA Assay Kit. • Samples were sequenced on MiSeq (MSC 2.5.0.5/RTA 1.18.54) with a 151 nt (Read1) setup using “Version3” chemistry. […]

GABARAPL2 [3] = target: T2, GABARAPL2 (Homo sapiens, UniProt P60520); assay: FP displacement assay, GABARAPL2; format: binding; settings: read-out: KD values ± SEM
T2 construct: GABARAPL2_ATG8__P60520_2_115; GST (cleaved yes); made in house; host or cells: Escherichia coli BL21-Gold(DE3)
T2 sequence (P60520 2-115): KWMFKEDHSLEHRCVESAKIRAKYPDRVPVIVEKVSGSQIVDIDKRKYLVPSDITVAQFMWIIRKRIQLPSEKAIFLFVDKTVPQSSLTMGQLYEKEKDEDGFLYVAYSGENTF
Description: as §1, §2

GABARAPL2 [4] = target: T2, GABARAPL2; assay: Phosphomimetic ProP-PD selection, GABARAPL2; settings: phosphomimetic enrichment score of the wild-type/phosphomimetic (E) pair at the phosphosite, PM_HD2 phage selection; positive = phosphomimetic enhances binding; P-value in brackets not taken
Description: as §3, §4

MAP1LC3B [5] = target: T3, MAP1LC3B (Homo sapiens, UniProt Q9GZQ8); assay: FP displacement assay, MAP1LC3B; format: binding; settings: read-out: KD values ± SEM
T3 construct: GST (cleaved yes); made in house; host or cells: Escherichia coli BL21-Gold(DE3)
Description: as §1, §2

MAP1LC3B [6] = target: T3, MAP1LC3B; assay: Phosphomimetic ProP-PD selection, MAP1LC3B; settings: phosphomimetic enrichment score of the wild-type/phosphomimetic (E) pair at the phosphosite, PM_HD2 phage selection; positive = phosphomimetic enhances binding; P-value in brackets not taken
Description: as §3, §4

MAP1LC3A [7] = target: T4, MAP1LC3A (Homo sapiens, UniProt Q9H492); assay: Phosphomimetic ProP-PD selection, MAP1LC3A; settings: phosphomimetic enrichment score of the wild-type/phosphomimetic (E) pair at the phosphosite, PM_HD2 phage selection; positive = phosphomimetic enhances binding; P-value in brackets not taken
T4 construct: GST (cleaved yes); made in house; host or cells: Escherichia coli BL21-Gold(DE3)
Description: as §3, §4

MAP1LC3A [8] = target: T4, MAP1LC3A; assay: FP displacement assay, MAP1LC3A; format: binding; settings: for IC50: Fig 4B, MAP1LC3A ATG8, FP displacement, technical triplicates, read-out: IC50 values of displacement curves, with SEM; for Kd: read-out: KD values ± SEM
[9] = Fig 4B, TSG101 UEV, technical triplicates
[10] = probe FITC-HIV2_Gag 5 nM, 50 mM sodium phosphate pH 7.4, room temperature, at least three technical replicates

PES (TSG101 UEV [2]) | Compound | Kd (GABARAPL2 [3]) | PES (GABARAPL2 [4]) | Kd (MAP1LC3B [5]) | PES (MAP1LC3B [6]) | PES (MAP1LC3A [7]) | other results
−14 (0.0000002) | CC(=O)N[C@@H](Cc1c[nH]cn1)C(=O)N[C@@H](CO)C(=O)NCC(=O)N[C@@H](CC(N)=O)C(=O)N[C@H](C(=O)N[C@@H](CCC(=O)O)C(=O)N1CCC[C@H]1C(=O)N[C@H](C(=O)N[C@@H](C)C(=O)N1CCC[C@H]1C(=O)N1CCC[C@H]1C(=O)N[C@@H](Cc1ccc(O)cc1)C(=O)N[C@@H](CC(C)C)C(=O)N[C@@H](CCC(N)=O)C(=O)N[C@@H](CCC(=O)O)C(=O)N[C@@H](CO)C(N)=O)[C@@H](C)O)C(C)C [PIP4P2_17–32 E] (Ac-HSGNVEPTAPPYLQES-NH2) |  |  |  |  |  | IC50 (TSG101 UEV [1]; [9]): 37 ± 8 µM; Kd (TSG101 UEV [1]; [10]): 18 ± 2 µM
 | CC(=O)N[C@@H](C)C(=O)N[C@@H](CC(N)=O)C(=O)N[C@@H](CO)C(=O)N[C@@H](Cc1c[nH]c2ccccc12)C(=O)N[C@@H](CCC(N)=O)C(=O)N[C@@H](CC(C)C)C(=O)N[C@H](C(=O)N[C@@H](CCC(=O)O)C(=O)N[C@@H](CCC(=O)O)C(=O)N1CCC[C@H]1C(=O)N[C@@H](CCC(=O)O)C(=O)N[C@@H](CCCCN)C(=O)N[C@@H](CCCNC(=N)N)C(=O)N[C@@H](CCCCN)C(=O)N[C@@H](CCC(=O)O)C(=O)N[C@@H](CCC(=O)O)C(N)=O)C(C)C [DLGAP4_907–922 E] (Ac-ANSWQLVEEPEKRKEE-NH2) | 260 ± 25 µM | −3.9 (0.00047) |  |  |  | 
−15 (0.00000004) | H3COC-QSIAREPS(pS/E)APSIPTPY-NH2 [PDCD6IP711–725 E, phosphomimetic (E) PDCD6IP 711-725 peptide] |  |  |  |  |  | IC50 values of displacement curves, with SEM (TSG101 UEV [1]; [9]): n.b.; KD values ± SEM (TSG101 UEV [1]; [10]): n.b.
 | CC(=O)N[C@@H](Cc1ccc(O)cc1)C(=O)N[C@@H](CCCCN)C(=O)N[C@@H](CCCCN)C(=O)N[C@@H](CCC(N)=O)C(=O)N[C@@H](CC(C)C)C(=O)N[C@@H](CCCCN)C(=O)N[C@@H](CCCNC(=N)N)C(=O)N[C@@H](Cc1ccccc1)C(=O)N[C@@H](CCC(=O)O)C(=O)N[C@H](C(=O)N[C@@H](CCC(=O)O)C(=O)N[C@@H](CCC(=O)O)C(=O)N[C@@H](Cc1ccccc1)C(=O)N[C@H](C(=O)N[C@@H](CC(C)C)C(=O)N[C@@H](CC(C)C)C(=O)O)C(C)C)[C@@H](C)O [ATG4C444–458 E] (Ac-YKKQLKRFETEEFVLL-OH) | 1.8 ± 0.2 µM | 4.3 (0.0025) | 4.6 ± 0.5 µM | 6 (0.00063) | 2.3 (0.015) | IC50 (MAP1LC3A [8]): 11 ± 1 µM; Kd (MAP1LC3A [8]): 3.1 ± 0.2 µM
 | CC(=O)N[C@@H](CCC(N)=O)C(=O)N[C@@H](CC(N)=O)C(=O)N[C@@H](CC(C)C)C(=O)N[C@@H](CO)C(=O)N[C@@H](CCCNC(=N)N)C(=O)N[C@@H](CCC(=O)O)C(=O)N[C@@H](Cc1c[nH]c2ccccc12)C(=O)N[C@@H](Cc1c[nH]cn1)C(=O)N[C@@H](CC(=O)O)C(=O)N[C@H](C(=O)N[C@@H](CCC(N)=O)C(=O)N[C@H](C(=O)N[C@@H](CO)C(=O)N[C@@H](CO)C(=O)N[C@@H](C)C(=O)N[C@@H](Cc1ccc(O)cc1)C(N)=O)C(C)C)C(C)C [TPD52L2_91–106 E] (Ac-QNLSREWHDVQVSSAY-NH2) |  |  | 225 ± 17 µM | 3 (0.012) | 14 (0.000000099) | IC50 (MAP1LC3A [8]): 223 ± 12 µM; Kd (MAP1LC3A [8]): 78 ± 3 µM
6 (0.0013) | CSCC[C@H](NC(=O)[C@@H]1CCCN1C(=O)[C@H](CCC(=O)O)NC(=O)[C@H](CC(C)C)NC(=O)[C@@H]1CCCN1C(=O)[C@H](C)NC(=O)[C@@H](NC(=O)[C@@H]1CCCN1C(=O)[C@H](CO)NC(=O)[C@H](CO)NC(=O)[C@H](C)NC(=O)CNC(=O)[C@H](CC(N)=O)NC(=O)[C@H](Cc1ccc(O)cc1)NC(C)=O)[C@@H](C)O)C(=O)N[C@@H](CO)C(=O)N1CCC[C@H]1C(N)=O [GJA1_269–283 E] (Ac-YNGASSPTAPLEPMSP-NH2) |  |  |  |  |  | IC50 (TSG101 UEV [1]; [9]): 232 ± 13 µM; Kd (TSG101 UEV [1]; [10]): 115 ± 4 µM
 | CC(=O)N[C@@H](CC(C)C)C(=O)N[C@@H](CCC(=O)O)C(=O)N[C@@H](CC(=O)O)C(=O)N[C@@H](CC(=O)O)C(=O)N[C@@H](CCC(=O)O)C(=O)N[C@@H](CCC(N)=O)C(=O)N[C@@H](Cc1ccccc1)C(=O)N[C@H](C(=O)N[C@@H](CCC(=O)O)C(=O)N[C@@H](CC(C)C)C(=O)N[C@@H](Cc1ccc(O)cc1)C(=O)NCC(=O)N[C@H](C(=O)N[C@@H](CCC(=O)O)C(=O)N[C@@H](CCC(=O)O)C(=O)N[C@@H](Cc1ccc(O)cc1)C(N)=O)[C@@H](C)O)C(C)C [TBK1_164–179 E] | 12.4 ± 0.6 µM | 1 (0.11) | 2.1 ± 0.2 µM | 5.1 (0.00047) | 3.2 (0.0061) | 
